Laboratory results as given in ChEMBL document CHEMBL5528071, “Discovery of Novel Steroid-Based Histamine H3 Receptor Antagonists/Inverse Agonists” (J Med Chem, 2024).
pIC50, pKi: −log10 of the molar value.

Assays:
Mus musculus = assay: Cognitive enhancing effect in scopolamine-induced NMRI mouse model assessed as reversal of exploration time by measuring minimum effective dose preadministered orally for 30 mins followed by scopolamine administration by place recognition test; type: functional; details: 0.5 h, route po, read-out: MED
Histamine H3 receptor [1] = biological target: Histamine H3 receptor (Rattus norvegicus, UniProt Q9QYN8)
Chain of Histamine H3 receptor (Rattus norvegicus, UniProt Q9QYN8) (Q9QYN8 whole entry): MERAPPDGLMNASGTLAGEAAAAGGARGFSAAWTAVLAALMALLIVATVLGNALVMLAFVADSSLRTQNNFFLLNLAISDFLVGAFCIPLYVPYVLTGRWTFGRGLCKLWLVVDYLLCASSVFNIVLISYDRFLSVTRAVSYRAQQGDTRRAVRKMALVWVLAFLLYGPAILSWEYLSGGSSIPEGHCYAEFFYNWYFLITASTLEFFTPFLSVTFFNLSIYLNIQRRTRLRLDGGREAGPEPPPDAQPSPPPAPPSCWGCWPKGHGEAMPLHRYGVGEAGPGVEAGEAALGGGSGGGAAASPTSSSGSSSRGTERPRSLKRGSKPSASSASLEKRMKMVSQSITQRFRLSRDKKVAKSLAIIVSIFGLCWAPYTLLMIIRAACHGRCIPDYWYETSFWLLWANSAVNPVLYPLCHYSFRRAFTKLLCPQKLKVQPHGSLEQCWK
Description: Displacement of N-alpha-[methyl-3H]-methylhistamine dihydrochloride from Sprague-Dawley rat cerebral cortex membrane Histamine H3 receptor assessed as inhibition constant incubated for 30 mins by scintillation counter

[2] = Ratio of drug concentration in Hannover Wistar rat brain to plasma administered orally for 2 days and measured 1 hrs post last dose by HPLC-MS/MS analysis; type: ADME; details: route po, read-out: BPR
[3] = biological target: Voltage-gated inwardly rectifying potassium channel KCNH2 (Homo sapiens, UniProt Q12809); assay: Inhibition of human ERG expressed in CHO cells incubated for 7 to 10 mins by automated whole-cell patch clamp recordings; type: toxicity, cell-based
Chain of Voltage-gated inwardly rectifying potassium channel KCNH2 (Q12809 whole entry): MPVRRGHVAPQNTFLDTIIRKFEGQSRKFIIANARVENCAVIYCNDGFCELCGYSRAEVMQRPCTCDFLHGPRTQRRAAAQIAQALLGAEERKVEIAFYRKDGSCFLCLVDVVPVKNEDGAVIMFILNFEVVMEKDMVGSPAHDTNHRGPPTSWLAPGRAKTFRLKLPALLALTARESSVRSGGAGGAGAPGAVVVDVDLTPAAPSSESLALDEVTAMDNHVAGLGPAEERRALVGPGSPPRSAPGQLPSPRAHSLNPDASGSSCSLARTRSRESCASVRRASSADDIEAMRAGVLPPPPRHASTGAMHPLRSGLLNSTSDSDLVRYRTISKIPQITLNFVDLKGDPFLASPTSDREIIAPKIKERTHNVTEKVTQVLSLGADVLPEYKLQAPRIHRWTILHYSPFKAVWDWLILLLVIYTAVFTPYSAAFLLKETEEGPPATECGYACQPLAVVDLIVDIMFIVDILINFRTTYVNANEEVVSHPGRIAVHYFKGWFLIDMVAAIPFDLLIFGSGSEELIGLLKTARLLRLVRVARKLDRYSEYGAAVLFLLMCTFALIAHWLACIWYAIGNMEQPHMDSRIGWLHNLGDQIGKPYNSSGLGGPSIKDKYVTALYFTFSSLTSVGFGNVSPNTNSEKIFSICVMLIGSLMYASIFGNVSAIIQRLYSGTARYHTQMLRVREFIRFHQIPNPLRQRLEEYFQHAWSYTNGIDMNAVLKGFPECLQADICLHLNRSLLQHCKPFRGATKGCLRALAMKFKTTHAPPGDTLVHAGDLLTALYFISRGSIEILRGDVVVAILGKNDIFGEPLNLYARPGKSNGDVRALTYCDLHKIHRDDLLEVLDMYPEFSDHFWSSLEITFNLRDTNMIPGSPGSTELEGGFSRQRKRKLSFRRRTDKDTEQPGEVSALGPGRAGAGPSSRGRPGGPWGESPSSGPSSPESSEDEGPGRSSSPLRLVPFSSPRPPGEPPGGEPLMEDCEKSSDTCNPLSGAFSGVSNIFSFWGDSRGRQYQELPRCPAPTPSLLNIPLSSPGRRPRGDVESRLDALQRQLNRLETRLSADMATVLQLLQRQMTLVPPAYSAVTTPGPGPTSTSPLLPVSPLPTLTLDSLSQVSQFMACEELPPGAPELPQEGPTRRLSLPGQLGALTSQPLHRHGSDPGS

[4] = Bioavailability in Wistar rat at 10 mg/kg, po or 3 mg/kg, iv measured after 24 hrs by HPLC-MS/MS analysis; type: ADME, organism-based; details: in vivo
[5] = In vivo antagonist activity at Histamine H3 receptor in Wistar rat assessed as reduction in imetit-induced water intake pretreated with compound for 30 mins followed by imetit administration and measured after 30 mins by dipsogenia test; type: functional; details: 1 h, time 60 min
Histamine H3 receptor [6] = biological target: T1, Histamine H3 receptor (Homo sapiens, UniProt Q9Y5N1)
T1 sequence (Q9Y5N1 whole entry): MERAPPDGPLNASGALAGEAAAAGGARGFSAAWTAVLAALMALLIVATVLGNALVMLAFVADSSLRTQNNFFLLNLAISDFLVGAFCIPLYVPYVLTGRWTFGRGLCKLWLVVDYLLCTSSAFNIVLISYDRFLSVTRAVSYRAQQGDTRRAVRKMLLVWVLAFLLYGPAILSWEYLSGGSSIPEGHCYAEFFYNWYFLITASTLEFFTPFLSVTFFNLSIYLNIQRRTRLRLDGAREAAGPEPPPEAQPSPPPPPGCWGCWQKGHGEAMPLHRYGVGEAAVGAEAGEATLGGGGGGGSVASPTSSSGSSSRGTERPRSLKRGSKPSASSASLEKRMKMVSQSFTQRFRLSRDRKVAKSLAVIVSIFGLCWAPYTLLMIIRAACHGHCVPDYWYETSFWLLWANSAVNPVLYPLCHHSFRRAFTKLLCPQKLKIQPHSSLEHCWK
Description: Displacement of N-alpha-[methyl-3H]methylhistamine dihydrochloride from human Histamine H3 receptor expressed in CHO-K1 cell membrane assessed as inhibition constant incubated for 30 mins by liquid scintillation analyzer

[7] = Displacement of [3H]quinuclidinyl benzilate from Wistar rat cerebral cortex membrane muscarinic AChR assessed as inhibition constant by liquid scintillation counter
Rattus norvegicus [8] = species: Rattus norvegicus; assay: Displacement of [3H]quinuclidinyl benzilate from Wistar rat cerebral cortex membrane muscarinic AChR at 1 uM by liquid scintillation counter relative to control; type: cell membranes
Histamine H3 receptor [9] = biological target: T1, Histamine H3 receptor; assay: Antagonist activity at human Histamine H3 receptor
hERG (KCNH2) [10] = biological target: T2, hERG (KCNH2) (Homo sapiens, UniProt Q12809); assay: Inhibition of human ERG expressed in CHO cells at 1 uM incubated for 7 to 10 mins by automated whole-cell patch clamp recordings relative to control; details: CHO cells expressing human ERG
T2 sequence (Q12809 whole entry): as the sequence (Q12809 whole entry) above

hERG (KCNH2) [11] = biological target: T2, hERG (KCNH2); assay: Inhibition of human ERG expressed in CHO cells at 3 uM incubated for 7 to 10 mins by automated whole-cell patch clamp recordings relative to control; details: CHO cells expressing human ERG
Rattus norvegicus [12] = assay: Cognitive enhancing effect in Hannover Wistar rat model of delay-induced natural forgetting assessed as reversal of exploration time by measuring minimal effective dose orally administered for 30 mins by novel object recognition test; type: functional; details: 0.5 h, route po, read-out: MED

Compound `C[C@@H]1CCCN1CCCOc1ccc2c(c1)CC[C@H]1C3=CCC(=O)N[C@@]3(C)CC[C@H]21` has a minimal effective dose (Mus musculus) of 0.3 mg/kg, a pKi (Histamine H3 receptor [1]) of 8.17 and a Kp at 49 h [2] of 0.6. The pIC50 [3] was 4.73, the bioavailability [4] was 63.8% and the ED50 [5] was 0.12 mg/kg.
In the case of `C[C@@H]1CCCN1CCCOc1ccc2c(c1)CC[C@H]1[C@@H]3[C@H](C#N)CC(=O)N[C@@]3(C)CC[C@H]21`, the pKi (Histamine H3 receptor [6]) was 8.07, the pKi (Histamine H3 receptor [1]) was 7.69 and the pIC50 [3] was 4.62. For the same compound, the pKi [7] was 5.62 and the ED50 [5] was 3.6 mg/kg.
In the case of `C[C@@H]1CCCN1CCCOc1ccc2c(c1)CC[C@H]1[C@H]3[C@@H]4C[C@@H]4C(=O)N[C@@]3(C)CC[C@H]21`, the pKi (Histamine H3 receptor [6]) was 8.62, the pKi (Histamine H3 receptor [1]) was 8.00 and the pIC50 [3] was 5.30. It also gave a pKi [7] of 5.44 and an ED50 [5] of 0.33 mg/kg.
For `C[C@@H]1CCCN1CCCOc1ccc2c(c1)CC[C@@H]1[C@@H]2CC[C@]2(C)NC(=O)CC[C@@H]12`, the pIC50 [3] was 5.43.
`C[C@@H]1CC(=O)N(C)[C@@]2(C)CC[C@@H]3c4ccc(OCCCN5CCC[C@H]5C)cc4CC[C@H]3[C@H]12` showed a pKi (Histamine H3 receptor [6]) of 8.62, a pKi (Histamine H3 receptor [1]) of 8.66 and a pIC50 [3] of 5.06. For the same compound, the ED50 [5] was 0.48 mg/kg.
Work on `C[C@]12CC[C@@H]3c4ccc(OCCCN5CCCC5)cc4CC[C@H]3[C@@H]1CCCN2` yielded a pKi (Histamine H3 receptor [6]) of 8.82, an Activity (Rattus norvegicus [8]) of 36% and a pKi (Histamine H3 receptor [1]) of 7.52.
In the case of `C[C@@H]1CC(=O)N[C@@]2(C)CC[C@@H]3c4ccc(OCCCN5CCC[C@H]5C)cc4CC[C@H]3[C@H]12`, the pKi (Histamine H3 receptor [6]) was 8.66, the pKi (Histamine H3 receptor [1]) was 7.61 and the pIC50 [3] was 4.96. The pKi [7] was 5.60 and the ED50 [5] was 1.3 mg/kg.
Compound `C[C@@H]1CCCN1CCCOc1ccc2c(c1)CC[C@@H]1[C@@H]2CC[C@]2(C)NC(=O)CC[C@H]12` has a pIC50 [3] of 4.66.
With `C[C@]12CC[C@@H]3c4ccc(OCCCN5CCCC5)cc4CC[C@H]3[C@@H]1CCCN2C=O` the pKi (Histamine H3 receptor [6]) was 8.74, the Activity (Rattus norvegicus [8]) was 13% and the pKi (Histamine H3 receptor [1]) was 7.66. For the same compound, the pIC50 [3] was 5.22.
In the case of `C[C@@H]1CCCN1CCCOc1ccc2c(c1)CC[C@H]1[C@@H]3[C@@H]4C[C@@H]4C(=O)N[C@@]3(C)CC[C@H]21`, the pKi (Histamine H3 receptor [6]) was 8.31, the pKi (Histamine H3 receptor [1]) was 8.03 and the pIC50 [3] was 4.93. It also gave an ED50 [5] of 1.5 mg/kg.
`C[C@@H]1CCCN1CCCOc1ccc2c(c1)CC[C@@H]1[C@@H]2CC[C@@]2(C)NC(=O)CC[C@@H]12` showed a pIC50 [3] of less than 4.52.
`CC(=O)N1CCC[C@H]2[C@@H]3CCc4cc(OCCCN5CCC[C@H]5C)ccc4[C@H]3CC[C@@]21C` gave a pKi (Histamine H3 receptor [6]) of 8.16, a pKi (Histamine H3 receptor [1]) of 7.80 and a pIC50 [3] of 5.00.
Compound `CN1CCC[C@H]2[C@@H]3CCc4cc(OCCCN5CCCC5)ccc4[C@H]3CC[C@@]21C` has a pKi (Histamine H3 receptor [6]) of 9.05, an Activity (Rattus norvegicus [8]) of 69% and a pKi (Histamine H3 receptor [1]) of 8.29.
With `C[C@@H]1CCCN1CCCOc1ccc2c(c1)CC[C@@H]1[C@@H]2CC[C@@]2(C)[C@@H]1CCC(=O)N2C` the pIC50 [3] was 5.02 and the ED50 [5] was 0.23 mg/kg.
For `NC(=O)c1ccc([C@@H]2C[C@H]2C(=O)N2CCN(C3CCC3)CC2)cc1`, the pKi (Histamine H3 receptor [9]) was 9.30.
Compound `C[C@@H]1C[C@@H]2[C@@H]3CCc4cc(OCCCN5CCC[C@H]5C)ccc4[C@H]3CC[C@]2(C)N(C)C1=O` has a pKi (Histamine H3 receptor [6]) of 8.82, a pKi (Histamine H3 receptor [1]) of 8.42 and a pIC50 [3] of 5.57.
Work on `C[C@@H]1C[C@H]2[C@@H]3CCc4cc(OCCCN5CCC[C@H]5C)ccc4[C@H]3CC[C@]2(C)NC1=O` yielded a pKi (Histamine H3 receptor [6]) of 8.39, a pKi (Histamine H3 receptor [1]) of 8.05 and a pIC50 [3] of 4.84. For the same compound, the pKi [7] was 5.57 and the ED50 [5] was 0.86 mg/kg.
`CC(=O)N[C@]12CCC(=O)N[C@@]1(C)CC[C@@H]1c3ccc(OCCCN4CCC[C@H]4C)cc3CC[C@H]12` gave an inhibition at 1 µM (hERG (KCNH2) [10]) of 3%, a pKi (Histamine H3 receptor [6]) of 7.82 and a pKi (Histamine H3 receptor [1]) of 7.84. The inhibition at 3 µM (hERG (KCNH2) [11]) was 8%.
`C[C@]12CC[C@@H]3c4ccc(OCCCN5CCCC5)cc4CC[C@H]3[C@@H]1CCCN2CCO` showed a pKi (Histamine H3 receptor [6]) of 8.47 and a pKi (Histamine H3 receptor [1]) of 7.98.
For `C[C@@H]1CCCN1CCCOc1ccc2c(c1)CC[C@H]1[C@@H]3[C@H](C#N)CC(=O)N(C)[C@@]3(C)CC[C@H]21`, the pKi (Histamine H3 receptor [6]) was 8.70, the pKi (Histamine H3 receptor [1]) was 8.14 and the pIC50 [3] was 4.98. It also gave an ED50 [5] of 0.78 mg/kg.
Compound `C[C@@H]1CCCN1CCCOc1ccc2c(c1)CC[C@@H]1[C@@H]2CC[C@@]2(C)[C@H]1CCCN2C(=O)C1CCOC1` (some centres not stated) has a pKi (Histamine H3 receptor [1]) of 7.02.
Compound `C[C@@H]1CCCN1CCCOc1ccc2c(c1)CC[C@H]1C3=CCC(=O)N(C)[C@@]3(C)CC[C@H]21` has a pKi (Histamine H3 receptor [6]) of 8.96, a pKi (Histamine H3 receptor [1]) of 8.24 and a pIC50 [3] of 5.07. It also gave a pKi [7] of 5.82 and an ED50 [5] of 0.22 mg/kg.
In the case of `C[C@@H]1CCCN1CCCOc1ccc2c(c1)CC[C@@H]1[C@@H]2CC[C@@]2(C)[C@H]1CCCN2C(=O)c1ccccc1`, the pKi (Histamine H3 receptor [6]) was 7.94.
`CN1CCC[C@H]2[C@@H]3CC[C@H]4C[C@@H](OC(=O)CCN5CCCC5)CC[C@]4(C)[C@H]3CC[C@@]21C` showed a pKi (Histamine H3 receptor [6]) of 7.97 and an Activity (Rattus norvegicus [8]) of 44%.
Work on `C[C@@H]1CCCN1CCCOc1ccc2c(c1)CC[C@@H]1[C@@H]2CC[C@@]2(C)[C@H]1CCCN2C(=O)C(C)(C)C` yielded a pKi (Histamine H3 receptor [6]) of 8.11, a pKi (Histamine H3 receptor [1]) of 7.26 and a pKi [7] of 6.09.
Compound `CCC(=O)N1CCC[C@H]2[C@@H]3CCc4cc(OCCCN5CCC[C@H]5C)ccc4[C@H]3CC[C@@]21C` has a pKi (Histamine H3 receptor [6]) of 8.10, a pKi (Histamine H3 receptor [1]) of 7.43 and a pIC50 [3] of less than 5.00. It also gave a pKi [7] of 5.77.
`C[C@@H]1CCCN1CCCOc1ccc2c(c1)CC[C@@H]1[C@@H]2CC[C@@]2(C)[C@H]1CCC(=O)N2C` showed a minimal effective dose (Mus musculus) of 0.1 mg/kg, a Kp at 49 h [2] of 1.4 and a pIC50 [3] of 5.00. It also gave a minimal effective dose (Rattus norvegicus [12]) of 0.3 mg/kg, a bioavailability [4] of 63.7% and an ED50 [5] of 0.4 mg/kg.
With `C[C@@H]1CCCN1CCCOc1ccc2c(c1)CC[C@H]1[C@@H]3[C@@H]4C[C@@H]4C(=O)N(C)[C@@]3(C)CC[C@H]21` the pKi (Histamine H3 receptor [6]) was 9.00, the pKi (Histamine H3 receptor [1]) was 8.48 and the pIC50 [3] was 5.11. The ED50 [5] was 1.4 mg/kg.
